# Measured values published in patent publication US12533427B2, “Radioactive antitumor agent” (National Institutes for Quantum Science and Technology, priority 2017, dated 2026).
# Experiments:
# [1] = test system: glioblastoma showing high HIF-1α expression; conditions: clinical PET investigations; cited from earlier work
# [2] = Measurement of biochemical parameters (liver and renal function) in non-tumor-bearing mice; type: in vivo, mouse; conditions: any administration group; plasma, day 49
# Description: (§1) In each of the following evaluations, data were presented as mean value±standard deviation. Two-way analysis of variance was used in the significant difference test of the data, excluding the survival curve. A Log-rank test was used for the data of the survival curve. Significant levels used were all 5%.
# To evaluate side effects, biochemical parameters were measured using non-tumor-bearing mice (n=5/group) treated in a manner similar to the tumor-bearing mice described above.
# The measurements of biochemical parameters were performed by measuring amounts of glutamate pyruvate transaminase and alkaline phosphatase for liver function and amounts of urea nitrogen and creatinine for renal function using mouse plasma prepared from blood collected from heart on day 49 after the first administration of ^64Cu-ATSM, with a blood biochemical analyzer (FUJI DRI-CHEM 7000VZ, manufactured by FUJIFILM Corporation).
# [3] = test system: U87MG cells from human glioblastoma; test: Survival curve for 80 days of U87MG tumor-bearing mice; type: in vivo, BALB/c nude mouse
# Description: (§2) U87MG cells from human glioblastoma were purchased from ATCC, and utilized after growing. A U87MG tumor-bearing model was made by implanting 1×10^7 U87MG cells subcutaneously into the flanks of BALB/c nude mouse (male, 6 weeks old, weighing approximately 20 to 25 g, obtained from Japan SLC). The tumor-bearing mice were subjected to tests when the tumor diameter reached around 5 mm after transplantation of U87MG cells.
# (§3) The tumor-bearing mice were randomized into […] (n=7/group), and were intravenously administered with different single doses of ^64Cu-ATSM with 18.5, 37, 74, 111 and 148 MBq, and physiological saline as a control, respectively. To the remaining one group, ^64Cu-ATSM was administered intravenously at a dose of 37 MBq on days 0, 7, 21 and 28 of four times in total (37 MBq×4).
# as §1
# After the start of the study, the mice were slaughtered at the time when the tumor volume reached the humanitarian endpoint. Survivability for 80 days was observed, and the survival rate was calculated.
# [4] = Internal exposure dose estimate for human
# Description: Meanwhile, the internal exposure dose with ^64Cu-ATSM was maximum in the liver, and was 0.108 mSv/MBq. This means that when 150 MBq/kg of ^64Cu-ATSM is administered to a human weighing 60 kg, the exposure dose is 16.2 mGy/kg for the liver and 972 mSv for the whole body. When this exposure dose is applied to normal radiotherapy, it corresponds to an exposure equal to single irradiation of 1.215 Gy, which is lower than the single irradiation dose (1.8 to 2.0 Gy) of normal split irradiation in radiotherapy. Also, when 450 MBq/kg is administered to a human weighing 60 kg, the exposure dose is 48.6 mGy/kg for the liver and 2,916 mSv for the whole body. Since the tolerance dose of the liver in normal split irradiation is 30 Gy as a dose that causes side effects in 5% in 5 years, the total dose when administered a total of four times during normal radiotherapy of about 3 Gy will be 11.66 Gy, which is lower than the tolerance dose of the liver described above.
# The present inventors have also reported estimates of irradiation doses of ^64Cu-ATSM for human based on in vivo distribution in normal mouse tissue (see, Yoshii Y, Furukawa T, Matsumoto H, Yoshimoto M, Kiyono Y, Zhang M R, Fujibayashi Y, and Saga T (2016) Cu-ATSM therapy targets regions with activated DNA repair and enrichment of CD133 cells in an HT-29 tumor model: Sensitization with a nucleic acid antimetabolite. Cancer Lett 376: 74-82 and Yoshii Y, Matsumoto H, Yoshimoto M, Furukawa T, Morokoshi Y, Sogawa C, Zhang M R, Wakizaka H, Yoshii H, Fujibayashi Y, and Saga T (2014) Controlled administration of penicillamine reduces radiation exposure in critical organs during ^64Cu-ATSM internal radiotherapy: a novel strategy for liver protection. PloS one 9: e86996). […] Thus, doses in the multiple administration of ^64Cu-ATSM to human according to the present invention can be determined as appropriate based on data of therapeutic effect and toxicity in mouse in the present invention. PET imaging of ^64Cu-ATSM may also be performed to monitor the irradiation dose of tumors and tissues during ^64Cu-ATSM therapy for human according to the present invention, thereby enabling theranostics of cancer.
# [5] = test system: CD133-positive cells; conditions: Non-Patent Literature 2; cited from earlier work
# [6] = Measurement of hematological parameters in non-tumor-bearing mice; type: in vivo, mouse
# Description: as §1
# To evaluate side effects, hematological parameters were measured using non-tumor-bearing mice (n=5/group) treated in a manner similar to the tumor-bearing mice described above.
# The measurement of hematological parameters was performed by measuring concentrations of white blood cells, red blood cells and platelets using blood collected from the vein at the start point (day 0) immediately before administration of ^64Cu-ATSM and on days 2, 7, 14, 21, 28, 35, 42 and 49 after administration of ^64Cu-ATSM, with a blood analyzer (Celltac MEK-6458, manufactured by NIHON KOHDEN CORPORATION).
# [7] = Body weight change of U87MG tumor-bearing mice; type: in vivo, BALB/c nude mouse
# Description: as §3, §1
# (§4) After the start of the study, mice were weighed twice a week over time, and the size of the tumor was measured with a caliper. The tumor volume was calculated with the formula: tumor volume=length×width^2×π/6, and the tumor volume on each day was expressed as a percentage relative to the initial tumor volume on day 0.
# [8] = test system: U87MG cells from human glioblastoma; test: Tumor growth in U87MG tumor-bearing mouse; type: in vivo, BALB/c nude mouse; conditions: for rate of tumor volume ratio to tumor volume ratio of the control group on day 39: single i.v. administration
# Description: as §2, §3, §1, §4
# [9] = therapeutic dose calculated from 37 MBq per mouse; cited from earlier work
# [10] = test system: CD133-positive cells in tumors; conditions: Non-Patent Literatures 3 and 4; cited from earlier work
# [11] = 37 MBq four-time administration (37 MBq×4)
# [12] = 150 MBq/kg to a human weighing 60 kg
# [13] = 450 MBq/kg to a human weighing 60 kg
# [14] = 111 and 148 MBq single administration
substance,measurement,setting,value
radioactive diacetyl-bis(N4-methylthiosemicarbazone) copper complex [^64Cu-ATSM],accumulation in tumor (PET),[1],accumulates in highly malignant grade glioblastoma showing high HIF-1α expression
same,alkaline phosphatase (ALP) compared to control,[2],no significant differences
same,blood urea nitrogen (BUN) compared to control,[2],no significant differences
same,creatinine (CRE) compared to control,[2],no significant differences
same,glutamate pyruvate transaminase (GPT) compared to control,[2],no significant differences
same,survival rate compared to the control group,"[3]; 37, 74, 111 and 148 MBq single administration groups and 37 MBq×4 group, 80 days",higher than that of the control group
same,survival time compared to the 111 MBq single administration group,[3]; [11],"longer survival time than the 111 MBq single administration group, but no significant difference"
same,"life-extending effect compared to the control group, single administration groups",[3]; 111 MBq single administration,significant life-extending effect
same,survival effect among the single administration groups,[3]; 111 MBq single administration,highest survival effect
same,"survival time compared to the 18.5, 37, 74 and 148 MBq single administration groups",[3]; 111 MBq single administration group and 37 MBq×4 group,significantly longer survival time
same,exposure dose for the liver,[4]; [12],16.2 mGy/kg
same,exposure dose for the whole body,[4]; [12],972 mSv
same,exposure equal to single irradiation of normal radiotherapy,[4]; [12],1.215 Gy
same,exposure dose for the liver,[4]; [13],48.6 mGy/kg
same,exposure dose for the whole body,[4]; [13],"2,916 mSv"
same,total dose when administered a total of four times,"[4]; 450 MBq/kg to a human weighing 60 kg, four times",11.66 Gy
same,"internal exposure dose, liver (maximum organ)",[4]; liver,0.108 mSv/MBq
same,accumulation in cells,[5],accumulates in CD133-positive cells
same,hematological toxicity,"[6]; 37 MBq four-time administration (37 MBq×4), throughout the study period",no symptoms of hematological toxicity were observed
same,recovery of number of white blood cells,"[6]; 74, 111 and 148 MBq single administration",recovered to normal on day 21
same,number of white blood cells (WBC),"[6]; 74 and 111 MBq single administration, day 2",significant reductions
same,number of platelets (PLT),"[6]; 111 MBq single administration, day 7",significant reduction
same,recovery of number of platelets,[6]; [14],recovered to normal on day 14
same,number of white blood cells (WBC),"[6]; 111 and 148 MBq single administration, days 7 and 14",significant reductions
same,recovery of number of red blood cells,[6]; 148 MBq single administration,recovered to normal on day 14
same,number of red blood cells (RBC),"[6]; 148 MBq single administration, day 7",significant reduction
same,number of platelets (PLT),"[6]; 148 MBq single administration, days 2 and 7",significant reductions
same,body weight loss,[7]; [11],No body weight loss was observed
same,recovery of body weight,[7]; [14],returned to normal body weight by day 14
same,body weight compared to the control group,"[7]; 111 and 148 MBq single administration, day 7",significantly reduced
same,tumor growth compared to the control group,[8]; 37 MBq four times (37 MBq×4),significantly greater inhibition effect of tumor growth
same,mice with tumors nearly invisible on day 39,"[8]; 37 MBq four-time administration (37 MBq×4), day 39",6 cases among 7 mice
same,rate of tumor volume ratio to that of the control group on day 39,"[8]; 37 MBq four-time administration (37 MBq×4; days 0, 7, 21, 28), i.v., day 39",0.04
same,rate of tumor volume ratio to tumor volume ratio of the control group on day 39,"[8]; fifth of five printed values, 148 MBq, day 39",0.14
same,rate of tumor volume ratio to tumor volume ratio of the control group on day 39,"[8]; first of five printed values, presumably 18.5 MBq, day 39",0.82
same,rate of tumor volume ratio to tumor volume ratio of the control group on day 39,"[8]; fourth of five printed values, presumably 111 MBq, day 39",0.14
same,rate of tumor volume ratio to tumor volume ratio of the control group on day 39,"[8]; second of five printed values, presumably 37 MBq, day 39",0.31
same,dose dependence of antitumor effect,[8]; single administration 18.5-148 MBq,"dose-dependent antitumor effect, showing a plateau at 111 MBq"
same,tumor growth compared to the control group,"[8]; single administration at 37, 74, 111 and 148 MBq, 39 days",significantly inhibited tumor growth
same,tumor growth compared to the control group,[8]; single administration of 18.5 MBq,"inhibited tumor growth compared to the control group, but showed no significant difference"
same,rate of tumor volume ratio to tumor volume ratio of the control group on day 39,"[8]; third of five printed values, presumably 74 MBq, day 39",0.28
same,"estimated irradiation doses to liver, red bone marrow and ovary in human",[9],lower than the acceptable dose
same,effect on CD133-positive cells in tumors,[10],reduce CD133-positive cells in tumors
